PMC12314110, “Evaluation of Potential Effects of CYP3A Inhibition and CYP3A Induction on the Pharmacokinetics of Fruquintinib in Healthy Subjects” (Clinical Pharmacology in Drug Development, 2025)

Assay: Safety assessments (adverse events) in healthy subjects
Format: in vivo, human
Conditions: Part A, fruquintinib 5 mg alone or with itraconazole, healthy subjects
Experimental: Safety was assessed by evaluation of adverse events (AEs), serious AEs, AEs of special interest, physical examinations, vital signs, single 12‐lead electrocardiograms and cardiac monitoring, and clinical laboratory data. All AEs were coded using the Medical Dictionary for Regulatory Activities Version 23.0, and their severity was graded using the National Cancer Institute Common Terminology Criteria for Adverse Events Version 5.0.

## CNC(=O)c1c(C)oc2cc(Oc3ncnc4cc(OC)c(OC)cc34)ccc12 [Fruquintinib]
  adverse events: no AEs reported
